# From patent EP0294814B1, “Treating agents for renal diseases” (DAIICHI PHARMACEUTICAL CO., LTD., priority 1987, dated 1988)
# Where a name gives a salt, the structure may show the parent alone.
# Key:
# [1] = system: diabetic nephropathy or glomerulonephritis; conditions: applied to diabetic nephropathy or glomerulonephritis, literature reports; cited from earlier work
# [2] = system: thromboxane A₂; conditions: known from prior art; cited from earlier work
# [3] = system: Diabetic SHR; assay: Diabetic nephropathy model: excretion of protein, γ-GTP and NAβG in the urine; format: in vivo, rat; conditions: after 4 months of administration
# Protocol: (§1) 5-Week old spontaneous hypertensive male rats (SHR) and normotensive Wister Kyoto rats (WKY), both available from Nippon Charles River, were used. Streptozotocin (STZ) was dissolved in a 0.1M citrate buffer solution (pH 4.5) and injected to the tail vein of the rat at a dose level of 50 mg/kg to prepare a diabetic rat. For control, the rat received 1 ml/kg of the citrate buffer solution alone through administration to the tail vein. After one week from the STZ administration, blood was taken from the tail vein of the unanesthetized rat, and the blood sugar level was measured. Those rats having a blood sugar level of […] or higher were used as diabetic rats. […]
# After 4 months from the start of the administration of Compound A, urine was collected for 24 hours, and the protein, γ-GTP activity and NAβG activity in the urine were determined by the method of Kinsbury et al., the method of using a commercially available kit (γ-GTP Test Pack, produced by Sankyo Co., Ltd.), and the method of Hasebe et al., respectively.
# [4] = Hydronephrosis model: clearance test; format: in vivo, SD male rat; conditions: Normal Kidney, 0.3 µg/min infused into renal artery, mean±S.E. of 5 cases
# Protocol: (§2) An abdominal incision was made in a SD male rat having a body weight of from 300 to 400 g under light anesthesia with diethyl ether. After the left urinary tract was ligated in the middle between the bladder and the kidney, the incision was closed, and the animal was fed on foods and tap water, ad lib.
# (§3) After 18 hours from the ligation of the urinary tract, a cannula was inserted in the urinary tracts on both sides, the right femoral artery and the right femoral vein for collection of blood samples, infusion of inulin and infusion of p-aminohippuric acid, respectively, under Inactin anesthesia. Physiological saline containing 20 mg/ml of inulin and physiological saline containing 4 mg/ml of p-aminohippuric acid were continuously infused each at a rate of 0.4 ml/min in a 1/20 amount of the body weight. On confirming that the urinary output became constant after 50 minutes from the start of the infusion, urine was collected separately from the right and left urinary tracts at intervals of 20 minutes, and blood samples were obtained at the middle between urine collections. Immediately preceding the start of urine collection, infusion of physiological saline at a rate of 25 µl/min into the left femoral artery was instituted and continued for 40 minutes. Thereafter, a solution of a hydrochloride hemihydrate of Compound A in physiological saline was continuously infused at a dose level of 0.3 µg/25 µl/min/rat for 40 minutes into the inlet of the renal artery through a retrograde cannula inserted from the left femoral artery. Inulin levels in urine and in blood were determined according to the anthrone method (H.H. Hilger et al., Pflügers Arch Physiol., Vol. 267, 218 (1958)), and p-aminohippuric acid levels in urine and blood were determined according to the method of Smith et al. (H.W. Smith et al., J. Clin. Invest., Vol. 24, 388 (1945)), to calculate clearance values of inulin and p-aminohippuric acid.
# [5] = system: Hydronephrotic Kidney; assay: Hydronephrosis model: clearance test; format: in vivo, SD male rat; conditions: Normal Kidney, 0.3 µg/min infused into renal artery, mean±S.E. of 5 cases
# Protocol: as §2, §3
# [6] = system: Ischemic Insufficient Kidney; assay: Ischemic renal insufficiency model: renal function; format: in vivo, SD rat; conditions: 10 mg/kg intraperitoneally 30 minutes before ligature of renal arteries; 24 hours after reperfusion; mean±S.E.
# Protocol: An abdominal incision was made in a SD vale rat weighing 300 to 450 g under pentobarbital anesthesia, and renal arteries of both sides were ligated with a clamp for 40 minutes and then reopened to prepare an animal suffering from isochemic renal insufficiency.
# The hydrochloride hemihydrate of Compound A was dissolved in physiological saline, and administered intraperitoneally to the test animal at a dose level of 10 mg/2 ml/kg 30 minutes before the ligature of the renal arteries. The control group received the same volume of physiological saline.
# After the blood flow of the renal arteries was restored, the animal was fed on foods and tap water ad lib. for 24 hours. The clearance values of inulin and p-aminohippuric acid were determined in the same manner as described in Example 2.
# [7] = Diabetic nephropathy model: influence on body weight of SHR and diabetic SHR; format: in vivo, rat; conditions: SHR
# Protocol: as §1
# [8] = system: rats; assay: Acute toxicity in rats; format: in vivo
# Excerpt: Acute toxicities of a hydrochloride hemihydrate of Compound A in rats through oral administration or intravenous injection were as follows.
smiles,measurement,setting,value
"Cl.O=C(O)/C=C/c1ccc(Cn2ccnc2)cc1 [(E)-3-(4-(1-Imidazolylmethyl)phenyl)propenoic acid hydrochloride, reference compound]",effect in treatment of renal diseases,[1],not satisfactory
same,inhibition of the synthesis of thromboxane A₂,[2],inhibit the synthesis of thromboxane A₂
"O=C(O)c1ccc2c(c1)CCC(Cn1ccnc1)C2 (centres unmarked) [Compound A, 6-(1-imidazolylmethyl)-5,6,7,8-tetrahydronaphthalene-2-carboxylic acid]",Excretion in Urine for 24 h NAβG,[3]; 1 mg/kg/day oral,0.536± 0.086 mg/100 g B.W.
same,Excretion in Urine for 24 h Protein,[3]; 1 mg/kg/day oral,6.82± 1.56 mg/100 g B.W.
same,Excretion in Urine for 24 h γ-GTP,[3]; 1 mg/kg/day oral,2.83± 0.32 U/100 g B.W.
same,Excretion in Urine for 24 h NAβG,[3]; 10 mg/kg/day oral,0.412± 0.056 mg/100 g B.W.
same,Excretion in Urine for 24 h Protein,[3]; 10 mg/kg/day oral,4.00± 0.59 mg/100 g B.W.
same,Excretion in Urine for 24 h γ-GTP,[3]; 10 mg/kg/day oral,2.45± 0.22 U/100 g B.W.
same,Inulin Clearance,[4],1.77± 0.13 ml/min/ kidney
same,Urinary Output,[5],7.47± 0.83 µℓ/min/ kidney
same,p-Aminohippuric Acid Clearance,[5],5.95±0.50 ml/min/kidney
same,Inulin Clearance,[6],0.32± 0.05 ml/min/kidney
same,Urinary Output,[6],11.30± 1.53 µl/min/kidney
same,p-Aminohippuric Acid Clearance,[6],1.01±0.17 ml/min/kidney
same,inhibition of the synthesis of thromboxane A₂,[2],inhibit the synthesis of thromboxane A₂
same,Body Weight (Mean±S.E.),"[7]; 1 mg/kg/day, 1 Month after start of admin.",280.3 ± 4.0 g
same,Body Weight (Mean±S.E.),"[7]; 1 mg/kg/day, 5 Months after start of admin.",392.4 ± 5.6 g
same,Body Weight (Mean±S.E.),"[7]; 10 mg/kg/day, 1 Month after start of admin.",278.7 ± 5.3 g
same,Body Weight (Mean±S.E.),"[7]; 10 mg/kg/day, 5 Months after start of admin.",385.3 ± 7.5 g
"O=C(O)c1ccc2c(c1)CCC(Cn1ccnc1)C2 (centres unmarked) [hydrochloride hemihydrate of Compound A, 6-(1-imidazolylmethyl)-5,6,7,8-tetrahydronaphthalene-2-carboxylic acid]",LD₅₀,"[8]; Female rats, i.v.",783 (i.v.) mg
same,LD₅₀,"[8]; Female rats, p.o.",1994 (p.o.) mg
same,LD₅₀,"[8]; Male rats, i.v.",807 mg
same,LD₅₀,"[8]; Male rats, p.o.",2438 mg
